Test results as given in the supplement of paper PMC10307832.

Assays:
Assay in all cases: relative viability (nuclei count vs DMSO), 5 days (fraction); higher = more cells survive
[1] = compound: C[C@@H](Oc1cc(-c2cnn(C3CCNCC3)c2)cnc1N)c1c(Cl)ccc(F)c1Cl [Crizotinib] + CC1(C)CCC(c2ccc(Cl)cc2)=C(CN2CCN(c3ccc(C(=O)NS(=O)(=O)c4ccc(N[C@H](CCN5CCOCC5)CSc5ccccc5)c(S(=O)(=O)C(F)(F)F)c4)cc3)CC2)C1 [Navitoclax] (partner 0.5 µM)
Procedure, shortened: (§1)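 Relative viability equals treated-well nuclei counts divided by vehicle-well nuclei counts. Counts came from 4× images of lung cancer cell lines grown in 1536-well plates for 5 days after pin-tool dosing on the day after seeding. Dosing used one drug alone or a fixed anchor-drug dose plus five library-drug doses (not always all listed) in √10 steps, and values are medians of duplicate plates.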

[2] = compound: CC(C)C[C@H](NC(=O)[C@H](CCc1ccccc1)NC(=O)CN1CCOCC1)C(=O)N[C@@H](Cc1ccccc1)C(=O)N[C@@H](CC(C)C)C(=O)[C@@]1(C)CO1 [Carfilzomib] + NC(=O)Nc1cc(-c2cccc(F)c2)sc1C(=O)N[C@H]1CCCNC1 [AZD7762] (partner 0.2 µM)
Procedure, shortened: as §1

[3] = compound: C[C@@H](Oc1cc(-c2cnn(C3CCNCC3)c2)cnc1N)c1c(Cl)ccc(F)c1Cl [Crizotinib] + CS(=O)(=O)N1CCN(Cc2cc3nc(-c4cccc5[nH]ncc45)nc(N4CCOCC4)c3s2)CC1 [Pictilisib] (partner 1 µM)
Procedure, shortened: as §1

[4] = compound: CC(C)C[C@H](NC(=O)[C@H](CCc1ccccc1)NC(=O)CN1CCOCC1)C(=O)N[C@@H](Cc1ccccc1)C(=O)N[C@@H](CC(C)C)C(=O)[C@@]1(C)CO1 [Carfilzomib] + Cc1nc(Nc2ncc(C(=O)Nc3c(C)cccc3Cl)s2)cc(N2CCN(CCO)CC2)n1 [Dasatinib] (partner 0.075 µM)
Procedure, shortened: as §1

Row | Cell Line | relative viability ([1]; first compound 0.01 µM) | relative viability ([1]; first compound 0.1 µM) | relative viability ([1]; first compound 0.3162 µM) | relative viability ([1]; first compound 1 µM) | relative viability ([2]; first compound 0.001 µM) | relative viability ([2]; first compound 0.003162 µM) | relative viability ([2]; first compound 0.01 µM) | relative viability ([2]; first compound 0.03162 µM) | relative viability ([2]; first compound 0.1 µM) | relative viability ([3]; first compound 0.01 µM) | relative viability ([3]; first compound 0.03162 µM) | relative viability ([3]; first compound 0.1 µM) | relative viability ([3]; first compound 0.3162 µM) | relative viability ([3]; first compound 1 µM) | relative viability ([4]; first compound 0.001 µM) | relative viability ([4]; first compound 0.003162 µM) | relative viability ([4]; first compound 0.01 µM) | relative viability ([4]; first compound 0.03162 µM) | relative viability ([4]; first compound 0.1 µM) | relative viability ([1]; first compound 0.03162 µM)
1 | HCC-827 | 0.954 | 0.987 | 1.01 | 0.953 | 0.194 | 0.202 | 0.207 | 0.201 | 0.17 | 1.1 | 1.03 | 0.943 | 0.96 | 0.961 | 0.3 | 0.306 | 0.239 | 0.374 | 0.273 | –
2 | HOP-62 | 0.994 | 0.943 | – | 0.948 | 0.619 | 0.699 | 0.404 | 0.173 | 0.0821 | 0.469 | 0.625 | 0.779 | 0.342 | 0.624 | 0.618 | 0.655 | 0.499 | 0.0996 | 0.0979 | 0.996
3 | LC-2-ad | 0.412 | 0.44 | – | 0.442 | 0.798 | 0.913 | 0.856 | 0.794 | 0.608 | 0.473 | 0.426 | 0.461 | – | 0.44 | 0.475 | 0.711 | 0.796 | 0.475 | 0.256 | 0.432
4 | LCLC-97TM1 | 0.318 | 0.341 | 0.317 | 0.404 | 0.219 | 0.246 | 0.252 | 0.158 | 0.0638 | 0.205 | 0.18 | 0.182 | 0.128 | 0.194 | 0.776 | 0.89 | 0.837 | 0.774 | 0.397 | 0.39
5 | LK-2 | 0.826 | 0.674 | 0.967 | 0.905 | 0.369 | 0.519 | 0.399 | 0.0916 | 0.0762 | 0.51 | 0.59 | 0.492 | 0.645 | 0.568 | 0.299 | 0.349 | 0.229 | 0.154 | 0.17 | 0.938
6 | LOU-NH91 | 0.68 | 0.701 | 0.647 | 0.727 | 0.741 | 0.778 | 0.679 | 0.309 | 0.329 | 0.45 | 0.531 | 0.618 | 0.515 | 0.484 | 0.523 | 0.618 | 0.564 | 0.273 | 0.281 | 0.708
7 | LU99A | 0.801 | 0.826 | 0.721 | 0.786 | 0.346 | 0.368 | 0.33 | 0.26 | 0.187 | 0.261 | 0.327 | 0.348 | 0.336 | 0.365 | 0.533 | 0.688 | 0.512 | 0.278 | 0.152 | 0.743
8 | LXF-289 | 0.856 | – | 0.879 | 0.939 | 1.06 | 1.14 | 1.14 | 0.119 | 0.114 | 0.757 | 0.803 | 0.726 | 0.757 | 0.782 | 0.151 | 0.312 | 0.192 | 0.0373 | 0.0553 | 0.931
9 | NCI-H23 | 0.85 | 0.688 | – | 0.816 | 0.232 | 0.267 | 0.196 | 0.112 | 0.122 | 0.441 | 0.539 | 0.505 | – | 0.541 | 0.811 | 0.748 | 0.845 | 0.158 | 0.125 | 0.738
10 | NCI-H322M | 1.07 | 1.19 | 1.13 | 1.3 | 0.677 | 0.527 | 0.682 | 0.59 | 0.464 | 0.432 | 0.522 | 0.493 | 0.585 | 0.52 | 0.272 | 0.264 | 0.255 | 0.271 | 0.232 | 1.12
11 | NCI-H441 | 0.959 | 0.682 | – | 0.798 | 1.06 | 1.23 | 1.07 | 0.252 | 0.138 | 0.436 | 0.395 | 0.432 | 0.34 | 0.443 | 0.66 | 0.629 | 0.376 | 0.156 | 0.176 | 0.571
12 | NCI-H460 | – | 1.1 | 1.2 | 1.13 | 0.655 | 0.567 | 0.687 | 0.732 | 0.0739 | 0.4 | 0.349 | 0.302 | 0.309 | 0.314 | 0.539 | 0.529 | 0.568 | 0.538 | 0.0417 | 1.03
13 | NCI-H596 | 0.845 | – | 1 | 0.964 | 1.05 | 1.22 | 1.09 | 0.66 | 0.211 | 0.348 | 0.378 | 0.354 | 0.414 | 0.367 | 0.607 | 0.583 | 0.52 | 0.381 | 0.174 | –
14 | NCI-H647 | 1.01 | 1.03 | – | 1.06 | 0.385 | 0.468 | 0.29 | 0.0154 | 0.0223 | 0.432 | 0.393 | 0.459 | – | 0.269 | 0.198 | 0.21 | 0.149 | 0.0266 | 0.0232 | 1.21
15 | NCI-H727 | 0.394 | 0.505 | 0.436 | 0.393 | 0.511 | 0.498 | 0.685 | 0.608 | 0.242 | 0.368 | 0.389 | 0.561 | 0.285 | 0.29 | 0.386 | 0.333 | 0.491 | 0.216 | 0.174 | 0.459
16 | NCI-H838 | 1.14 | 1.16 | 1.19 | 1.13 | 0.945 | 0.989 | 0.954 | 0.962 | 0.621 | 0.396 | 0.5 | 0.483 | 0.426 | 0.496 | 0.321 | 0.333 | 0.291 | 0.267 | 0.182 | 1.14
